Assay results from US11311522B1 (Cavion, Inc., priority 2018, dated 2022).
“And” between values parts separate entries of the source, which are not always exact repeats. Equal entries are not always repeated. Where two headings read alike, the source gives them in different places.

Tests used:
[1] = Phase 1 single-dose pharmacokinetics (PN001, PN002/Part I, PN003, PN005); type: in vivo, human; conditions: for Cmax / AUC(0-t): male, human, plasma, oral; for AUC(0-t): read-out: AUC0-24
WAG/Rij rats = assay: WAG/Rij rat model of absence epilepsy; type: in vivo
Text: Other T-type antagonists from structurally diverse series have shown similar efficacy in this model (Broicher, 2007; Blumenfeld, 2008; Broicher, 2008; Shipe, 2008; Yang, 2008; Uebele, 2009; Russo, 2010; Russo, 2011).
Data were scored with automated seizure analysis software, averaged, and normalized to enable treatment comparisons (FIG. 76)
Control animals received vehicle administrations. […] Source: Merck TTA Package Description (FIG. 79).

Pharmacokinetics in rats = type: in vivo, rat
Protocol: (§3) The validity and reproducibility of the assays were determined, and the precision and accuracy for calibration standards and quality control samples were examined. […] The analytes were stable in plasma under the storage and assay conditions. […] Assay performances were satisfactory and met acceptance criteria for system performance suitability, quantitation range, calibration linearity, assay accuracy and precision, and assay recovery.

Pharmacokinetics in dogs = type: in vivo, dog
Protocol: as §3

[2] = In vitro plasma protein binding, rat; type: in vitro ADME
Text: (§1) CX-8998 distributes readily to the brain in rats and to brain and cerebral spinal fluid (CSF) in dogs.

[3] = In vitro plasma protein binding, dog; type: in vitro ADME
Text: as §1

[4] = In vitro plasma protein binding, monkey; type: in vitro ADME
Text: as §1

P-glycoprotein = P-glycoprotein bidirectional transport; type: in vitro ADME, human, monkey, and rat
Text: (§2) Glucuronide conjugates of the oxygenated metabolites are detected in human, monkey, and dog hepatocyte preparations. […] However, the abundance of CYP3A5, CYP2C19, and CYP2D6 in human liver microsomes is low (2%-5%) relative to the primary contributors, CYP3A4 (˜30%) and CYP2C9 (˜20%). […] Information on reproductive and developmental toxicology was obtained in a 28-day pivotal female fertility study in rats and in preliminary embryo-fetal development studies in rats and rabbits.

[5] = target: T1, breast cancer resistance protein (BCRP) (Homo sapiens, UniProt Q9UNQ0); assay: BCRP transport; type: in vitro ADME; conditions: 30 μM
T1 sequence (Q9UNQ0 1-655): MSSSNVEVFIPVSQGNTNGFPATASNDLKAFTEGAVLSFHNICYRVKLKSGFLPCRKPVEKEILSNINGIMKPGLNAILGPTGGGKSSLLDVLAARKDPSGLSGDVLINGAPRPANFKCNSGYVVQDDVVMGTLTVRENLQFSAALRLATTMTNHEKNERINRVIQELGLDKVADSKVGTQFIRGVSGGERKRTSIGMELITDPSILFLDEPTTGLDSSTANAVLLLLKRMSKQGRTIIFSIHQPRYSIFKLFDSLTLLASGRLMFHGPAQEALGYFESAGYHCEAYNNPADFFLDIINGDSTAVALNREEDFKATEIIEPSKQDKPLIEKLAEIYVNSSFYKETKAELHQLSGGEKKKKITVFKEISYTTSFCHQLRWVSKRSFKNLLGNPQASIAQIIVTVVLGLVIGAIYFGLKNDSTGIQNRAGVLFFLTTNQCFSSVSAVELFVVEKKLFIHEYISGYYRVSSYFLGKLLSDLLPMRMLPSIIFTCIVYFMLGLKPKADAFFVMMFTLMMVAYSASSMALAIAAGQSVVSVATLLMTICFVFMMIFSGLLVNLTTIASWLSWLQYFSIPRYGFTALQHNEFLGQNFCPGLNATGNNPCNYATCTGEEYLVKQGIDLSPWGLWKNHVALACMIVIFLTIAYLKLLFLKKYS
Text: as §2

[6] = test system: CYP1A2, CYP3A4, CYP2C8, CYP2C9, CYP2C19, CYP2D6, CYP2B6; assay: CYP inhibition in human liver microsomes; type: in vitro ADME
[7] = test system: T2, CYP1A2, CYP3A4, CYP2C8, CYP2C9, CYP2C19, CYP2D6; assay: CYP inhibition in human liver microsomes; type: in vitro ADME; conditions: human liver microsomes
T2 construct: IC50, CYP1A2, CYP3A4, CYP2C8, CYP2C9, CYP2C19, CYP2D6; other: human liver microsomes

[8] = for Day 90 Free Plasma AUC24 at NOAEL for Dog 90-Day Toxicology: 30 mg/kg/day; for Day 90 Free Plasma AUC24 at NOAEL for Rat 90-Day Toxicology: 300 mg/kg/day
in vivo = conditions: rat, po
[9] = 90-day oral toxicology in Beagle dogs; conditions: dog, in vivo; for NOAEL at 90 days: both
[10] = Crossover bioavailability study IR vs MR1 vs MR2 capsules: PK; parameters: AUC72hr: unit not given beside the values; conditions: for AUC728, Mean / AUC728: single 8 mg dose, fasted; for AUC728, Mean: N=15; for AUC728: individual subjects; for AUC72hr: plasma
[11] = Rat, IV 2 mg/kg, mean of 2 animals

CC(C)c1ccc(CC(=O)N[C@H](C)c2ccc(OCC(F)(F)F)cn2)cc1 [CX-8998]
Cmax ([1]; 1 mg, PN001/Part I, males 20-40 y, single 1 mg fed, read-out: Cmax): 56 nM | Cmax ([1]; 1 mg, PN001/Part I, males 20-40 y, single 1 mg, morning fasted, read-out: Cmax): 104 nM | Cmax ([1]; 1 mg, fasted, read-out: Cmax, mean): 104 nM | Cmax ([1]; 1 mg, fed (high-fat meal), read-out: Cmax, mean): 56 nM | Cmax ([1]; 2 mg, PN002/Part I, males 55-75 y, single 2 mg, morning fasted, read-out: Cmax): 198 nM | Cmax ([1]; 8 mg, PN002/Part I, males 55-75 y, single 8 mg, morning fasted, read-out: Cmax): 708 nM | Cmax ([1]; 8 mg, single 8 mg CX-8998, PN002/Part I middle-aged and elderly males, read-out: Cmax): 708 nM | AUC(0-t) ([1]; 12 mg, PN002 Part 2, 12 mg, 1 dose): 4.99 µM·h | Cmax ([1]; 12 mg, PN002 Part 2, 12 mg, 1 dose, read-out: Cmax): 798 nM | AUC(0-t) ([1]; 16 mg, PN001 Part 1, 16 mg, 1 dose): 8.52 µM·h | Cmax ([1]; 18 mg, PN001/Part II, males 22-39 y, single 18 mg, morning fasted, read-out: Cmax): 1180 nM | AUC(0-t) ([1]; 18 mg, PN001 Part 2, 18 mg, 1 dose): 9.93 µM·h | Cmax ([1]; 18 mg, PN001 Part 2, 18 mg, 1 dose, read-out: Cmax): 1180 nM | Cmax ([1]; 18 mg, PN002/Part I, males 55-75 y, single 18 mg, morning fasted, read-out: Cmax): 1330 nM | AUC(0-t) ([1]; 18 mg, PN002 Part 1, 18 mg, 1 dose): 9.44 µM·h | Cmax ([1]; 18 mg, PN002 Part 1, 18 mg, 1 dose, read-out: Cmax): 1330 nM | Cmax ([1]; 24 mg, PN001/Part I, males 20-40 y, single 24 mg evening, read-out: Cmax): 1370 nM | AUC(0-t) ([1]; Average of studies, dose 16, 1 dose): 8.22 µM·h | Cmax ([1]; Average of studies, dose 16, 1 dose, read-out: Cmax): 1060 nM | Mean Cmax higher than in younger male subjects ([1]; middle-aged and elderly female, 8 mg): 6% | Mean Cmax higher than in younger male subjects ([1]; middle-aged and elderly male, 8 mg): 28% | Reduction in Cmax with food ([1]; vs fasted state): 45% | Reduction in cumulative time spent in seizure (WAG/Rij rats; 1 mg/kg, 4 hours after dosing): 55% | Suppression of seizure frequency (WAG/Rij rats; 10 mg/kg): up to 50% | Percent of inhibition (WAG/Rij rats; 10 mg/kg oral): 77% | Suppression of accumulated time in seizure (WAG/Rij rats; 10 mg/kg, 4 hours after dosing): 77% | Suppression of accumulated time in seizure (WAG/Rij rats; 10 mg/kg, 15 hours after dosing): 54% | CL (Pharmacokinetics in rats; [11]): 29 mL/min/kg | t½ (Pharmacokinetics in rats; [11]): 0.8 h | F (Pharmacokinetics in rats; Rat, oral 10 mg/kg vs IV 2 mg/kg, mean (SD)): 42 (13) % | Plasma clearance (Pharmacokinetics in rats; rat, in vivo): 29 mL/min/kg | half-life (Pharmacokinetics in rats; rat, in vivo): 0.8 h | bioavailability (Pharmacokinetics in rats; rat, plasma, po, 10 mg/kg, single dose): 42% | t½ (Pharmacokinetics in rats; rodents): 0.8 h | t½ (Pharmacokinetics in dogs; Dog, IV […], mean (SD), 3 animals): 7.3 (3.1) hr | F (Pharmacokinetics in dogs; Dog, oral 0.5 mg/kg vs IV […], mean (SD)): 76 (47) % | Vdss, mean (Pharmacokinetics in dogs; dog, in vivo): 0.8 L/kg | half-life (Pharmacokinetics in dogs; dog, in vivo): 7.3 h | bioavailability (Pharmacokinetics in dogs; dog, plasma, po, 0.5 mg/kg, single dose): 76% | fraction unbound ([2]; rat plasma, read-out: In vitro plasma protein binding (converted)): ~0.008 | fraction unbound ([2]; rats, read-out: free fraction): 0.008 | fraction unbound ([2]; rodents, read-out: Plasma-free fraction): 0.004 | fraction unbound ([3]; dog plasma, read-out: In vitro plasma protein binding (converted)): ~0.003 | fraction unbound ([3]; dogs, read-out: free fraction): 0.003 | fraction unbound ([3]; read-out: Free fraction in dog plasma): 0.003 | fraction unbound [4]: ~0.012 | P-glycoprotein substrate or inhibitor activity (P-glycoprotein): did not demonstrate any activity as a substrate or inhibitor | Inhibition of BCRP transport [5]: 57% | Time-dependent inhibition of CYP3A4 or CYP2B6 [6]: insignificant | IC50 [7]: > 20 µM | Day 90 Free Margin for AUC24 at NOAEL for Dog 90-Day Toxicology ([8]; Female dogs vs human 10 mg BID): 19 | Day 90 Free Margin for Cmax at NOAEL for Dog 90-Day Toxicology ([8]; Female dogs vs human 10 mg BID (fed)): 57 | Day 90 Free Plasma AUC24 at NOAEL for Dog 90-Day Toxicology ([8]; Female dogs): 1089 nM · hr | Day 90 Free Margin for AUC24 at NOAEL for Rat 90-Day Toxicology ([8]; Female rats vs human 10 mg BID): 81 | Day 90 Free Margin for Cmax at NOAEL for Rat 90-Day Toxicology ([8]; Female rats vs human 10 mg BID (fed)): 184 | Day 90 Free Plasma AUC24 at NOAEL for Rat 90-Day Toxicology ([8]; Female rats): 4528 nM · hr | Day 90 Free Margin for AUC24 at NOAEL for Dog 90-Day Toxicology ([8]; Male dogs vs human 10 mg BID): 18 | Day 90 Free Margin for Cmax at NOAEL for Dog 90-Day Toxicology ([8]; Male dogs vs human 10 mg BID (fed)): 51 | Day 90 Free Plasma AUC24 at NOAEL for Dog 90-Day Toxicology ([8]; Male dogs): 1005 nM · hr | Day 90 Free Margin for AUC24 at NOAEL for Rat 90-Day Toxicology ([8]; Male rats vs human 10 mg BID): 37 | Day 90 Free Margin for Cmax at NOAEL for Rat 90-Day Toxicology ([8]; Male rats vs human 10 mg BID (fed)): 78 | Day 90 Free Plasma AUC24 at NOAEL for Rat 90-Day Toxicology ([8]; Male rats): 2088 nM · hr | NOAEL exposure vs intended free clinical exposures ([8]; beagle, dog): approximately 20 times | Exposure without effects on fertility or reproduction vs intended clinical free AUC ([8]; rat): > 100 times | NOAEL exposure vs intended free clinical exposures ([8]; rat): at least 39 times | half-life (in vivo; female, 5 mg/kg/day): 1.6 h | half-life (in vivo; female, 100 mg/kg/day): 9.25 h | half-life (in vivo; female, 300 mg/kg/day): 5.28 h | half-life (in vivo; male, 15 mg/kg/day): 2.87 h | Tmax (in vivo; male, 100 mg/kg/day): 2 h | half-life (in vivo; male, 100 mg/kg/day): 3.72 h | half-life (in vivo; male, 300 mg/kg/day): 5.68 h | NOAEL at 90 days ([9]; Beagle, po): 30 mg/kg/day | NOAEL at 90 days ([9]; beagle, oral): 30 mg/kg/day | AUC ([9]; female, Beagle, po, 10 mg/kg/day): 163 µM·h | AUC ([9]; female, beagle, po, 30 mg/kg/day): 363 µM·h | AUC ([9]; male, Beagle, po, 30 mg/kg/day): 335 µM·h | AUC728, Mean ([10]; IR Formulation): 7435 nMh | AUC728 ([10]; IR Formulation): 9175 nMh and 4786 nMh and 6911 nMh and 7288 nMh and 4596 nMh and 7940 nMh and 13892 nMh and 7217 nMh and 7305 nMh and 9382 nMh and 5463 nMh and 6845 nMh and 5185 nMh and 8628 nMh and 6910 nMh | AUC728, Mean ([10]; MR1 Formulation): 7526 nMh | AUC728 ([10]; MR1 Formulation): 9494 nMh and 4762 nMh and 7028 nMh and 7387 nMh and 4102 nMh and 8335 nMh and 13265 nMh and 8177 nMh and 6271 nMh and 9351 nMh and 5184 nMh and 7996 nMh and 5635 nMh and 8950 nMh and 7114 nMh | AUC728, Mean ([10]; MR2 Formulation): 7119 nMh | AUC728 ([10]; MR2 Formulation): 11133 nMh and 3862 nMh and 8064 nMh and 6813 nMh and 4833 nMh and 8180 nMh and 10810 nMh and 6034 nMh and 6730 nMh and 10165 nMh and 4975 nMh and 6136 nMh and 3085 nMh and 10051 nMh and 5947 nMh | AUC72hr ([10]; following a single 8 mg dose of MR1 CX-8998): 7530 | AUC72hr ([10]; following a single 8 mg dose of MR2 CX-8998): 7125
